Source: patent publication US11993660B2, “Chimeric polypeptides and methods of altering the membrane localization of the same” (Cell Design Labs, Inc., priority 2017, dated 2024)

Tested on: Primary human T cells expressing FMC63-CAR with ERa LBD fusion
Assay: Brefeldin A block of ligand-induced surface trafficking
Format: cell-based
Settings: 1 uM pre-treatment; then 500 ng/mL 4-OHT two hours
Description: Primary human T cells expressing FMC63-CAR with ERa LBD fusion were left untreated or were treated with 500 ng/mL 4-OHT ligand for two hours to induce surface expression of the CAR. Prior to 4-OHT treatment, half the cells were pre-treated with 1 uM Brefeldin A (FIG. 12, bottom two panels) to inhibit protein export from the Golgi.

C[C@H]1CCC/C=C/[C@@H]2C[C@H](O)C[C@H]2[C@H](O)/C=C/C(=O)O1 [Brefeldin A]
effect on 4-OHT-induced surface protein expression: prevented 4-OHT-induced increase in surface protein expression
